Consider 27 molecules from US9260439B2, “Dihydropyrrolopyrimidine derivatives” (PFIZER INC., priority 2014, dated 2016).

Molecules are shown by their SMILES. Structures can show the parent of a compound that is named as a salt.

Chain of truncated PI3Kα (p110α/iSH2 p85α) (P42336 whole entry, the tested form may be a part): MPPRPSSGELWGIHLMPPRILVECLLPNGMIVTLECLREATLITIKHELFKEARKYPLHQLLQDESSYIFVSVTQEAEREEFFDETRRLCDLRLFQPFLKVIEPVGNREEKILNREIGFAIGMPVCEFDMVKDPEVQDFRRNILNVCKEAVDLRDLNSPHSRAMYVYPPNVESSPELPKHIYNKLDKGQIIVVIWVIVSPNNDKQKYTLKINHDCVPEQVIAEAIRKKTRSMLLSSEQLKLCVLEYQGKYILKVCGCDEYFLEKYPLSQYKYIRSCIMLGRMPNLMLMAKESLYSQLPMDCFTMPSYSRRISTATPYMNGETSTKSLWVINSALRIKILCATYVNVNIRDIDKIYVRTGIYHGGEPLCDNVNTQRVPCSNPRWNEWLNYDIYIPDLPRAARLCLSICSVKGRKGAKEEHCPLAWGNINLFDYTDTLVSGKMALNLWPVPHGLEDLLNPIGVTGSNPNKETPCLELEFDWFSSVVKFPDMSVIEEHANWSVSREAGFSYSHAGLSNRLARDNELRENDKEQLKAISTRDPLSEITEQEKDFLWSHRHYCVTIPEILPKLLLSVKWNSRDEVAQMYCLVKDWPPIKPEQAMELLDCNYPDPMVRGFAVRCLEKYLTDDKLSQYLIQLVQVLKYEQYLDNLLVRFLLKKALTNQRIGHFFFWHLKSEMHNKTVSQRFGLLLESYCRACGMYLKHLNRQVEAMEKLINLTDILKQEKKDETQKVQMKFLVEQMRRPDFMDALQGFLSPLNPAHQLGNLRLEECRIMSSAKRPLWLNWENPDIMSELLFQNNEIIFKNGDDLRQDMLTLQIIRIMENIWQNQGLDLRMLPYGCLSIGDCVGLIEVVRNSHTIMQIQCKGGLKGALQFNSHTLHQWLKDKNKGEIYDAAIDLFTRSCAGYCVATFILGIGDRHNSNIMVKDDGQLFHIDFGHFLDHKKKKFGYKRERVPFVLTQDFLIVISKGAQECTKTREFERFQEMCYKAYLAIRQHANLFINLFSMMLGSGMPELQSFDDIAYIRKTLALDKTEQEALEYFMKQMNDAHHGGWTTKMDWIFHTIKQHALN

One assay deals with truncated PI3Kα (p110α/iSH2 p85α) (Homo sapiens (Human), UniProt P42336). As to the kind of experiment: PI3KA_Act fluorescence polarization kinase assay (Ki). The class given is biochemical. To be noted: 1 mM ATP. The method, boiled down:
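Ki values result from fitting fluorescence polarization signals to the Morrison equation for tight-binding competitive inhibitors. The detector was GST-Grp1 PH domain with TAMRA-PIP3, read after a 30 min room-temperature reaction of 0.5 nM truncated PI3Kα and 30 μM PIP2 at pH 7.4 in HEPES/NaCl/MgCl2/DTT/CHAPS buffer. Compounds were tested as 12-point 3-fold dilutions from 3 μM.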
(In general: In fluorescence polarisation assays a small probe gives low polarisation when free and higher when bound to something large.)
Consider `C[C@H]1COCCN1c1nc(-c2cnc(N)nc2)c2c(n1)N(C1CN(S(=O)(=O)N3CCC3)C1)CC2` [Example 464, 5-{7-[1-(azetidin-1-ylsulfonyl)azetidin-3-yl]-2-[(3S)-3-methylmorpholin-4-yl]-6,7-dihydro-5H-pyrrolo[2,3-d]pyrimidin-4-yl}pyrimidin-2-amine], for which the “PI3KA_Act Ki” value worked out at 0.193 nM. With `C[C@@H](O)C(=O)N1CC[C@](C)(N2CCc3c(-c4cnc(N)nc4)nc(N4CCOC[C@@H]4C)nc32)C1` [Example 471, (2R)-1-[(3S)-3-{4-(2-aminopyrimidin-5-yl)-2-[(3S)-3-methylmorpholin-4-yl]-5,6-dihydro-7H-pyrrolo[2,3-d]pyrimidin-7-yl}-3-methylpyrrolidin-1-yl]-2-hydroxypropan-1-one], the “PI3KA_Act Ki” value was determined as 0.037 nM. On to `C[C@]1(N2CCc3c(-c4cnc(N)nc4)nc(N4CCOCC4)nc32)CCN(C(=O)N2CC(C#N)C2)C1` [Example 363, 1-({(3S)-3-[4-(2-aminopyrimidin-5-yl)-2-(morpholin-4-yl)-5,6-dihydro-7H-pyrrolo[2,3-d]pyrimidin-7-yl]-3-methylpyrrolidin-1-yl}carbonyl)azetidine-3-carbonitrile], for which the “PI3KA_Act Ki” value came out at 0.039 nM. Same read-out and setting: then `CN(C)C(C)(C)C(=O)N1CC[C@](C)(N2CCc3c(-c4cnc(N)nc4)nc(N4CCOCC4)nc32)C1` [Example 304, 1-{(3S)-3-[4-(2-aminopyrimidin-5-yl)-2-(morpholin-4-yl)-5,6-dihydro-7H-pyrrolo[2,3-d]pyrimidin-7-yl]-3-methylpyrrolidin-1-yl}-2-(dimethylamino)-2-methylpropan-1-one], with under 0.018 nM; and `CCCC(C)(C)N1CCc2c(-c3cnc(N)nc3)nc(N3CCOCC3)nc21` [Example 187], with 0.839 nM. As to `C[C@H]1COCCN1c1nc(-c2cnc(N)nc2)c2c(n1)N([C@@]1(C)CCN(C(=O)OC(C)(C)C)C1)CC2` [Example 512, tert-butyl (3S)-3-{4-(2-aminopyrimidin-5-yl)-2-[(3S)-3-methylmorpholin-4-yl]-5,6-dihydro-7H-pyrrolo[2,3-d]pyrimidin-7-yl}-3-methylpyrrolidine-1-carboxylate], the “PI3KA_Act Ki” value is listed as under 0.018 nM. With `CCOC(=O)N1CC[C@@](C)(N2CCc3c(-c4cnc(N)nc4)nc(N4CCOCC4)nc32)C1` [Example 404, ethyl (3R)-3-[4-(2-aminopyrimidin-5-yl)-2-(morpholin-4-yl)-5,6-dihydro-7H-pyrrolo[2,3-d]pyrimidin-7-yl]-3-methylpyrrolidine-1-carboxylate], the “PI3KA_Act Ki” value is 0.128 nM.

On to `CC(=O)N1CC(N2CCc3c(-c4cnc(N)nc4)nc(N4CCOC[C@@H]4C)nc32)C1` [Example 451, 1-(3-{4-(2-aminopyrimidin-5-yl)-2-[(3S)-3-methylmorpholin-4-yl]-5,6-dihydro-7H-pyrrolo[2,3-d]pyrimidin-7-yl}azetidin-1-yl)ethanone], for which the “PI3KA_Act Ki” value stood at 0.595 nM.

As for `COC(=O)N1CC(C)(N2CCc3c(-c4cnc(N)nc4)nc(N4CCOC[C@@H]4C)nc32)C1` [Example 460, methyl 3-{4-(2-aminopyrimidin-5-yl)-2-[(3S)-3-methylmorpholin-4-yl]-5,6-dihydro-7H-pyrrolo[2,3-d]pyrimidin-7-yl}-3-methylazetidine-1-carboxylate], the “PI3KA_Act Ki” value was determined as 0.047 nM.

On to `CC(=O)N1CC(C)(N2CCc3c(-c4cnc(N)nc4)nc(N4CCOCC4)nc32)C1` [Example 240, 1-{3-[4-(2-aminopyrimidin-5-yl)-2-(morpholin-4-yl)-5,6-dihydro-7H-pyrrolo[2,3-d]pyrimidin-7-yl]-3-methylazetidin-1-yl}ethanone], for which the “PI3KA_Act Ki” value is on record as 0.093 nM. Still for that read-out and setting: then `CC1(C)COC(N2CC[C@](C)(N3CCc4c(-c5cnc(N)nc5)nc(N5CCOCC5)nc43)C2)=N1` [Example 9, 5-{7-[(3S)-1-(4,4-dimethyl-4,5-dihydro-1,3-oxazol-2-yl)-3-methylpyrrolidin-3-yl]-2-(morpholin-4-yl)-6,7-dihydro-5H-pyrrolo[2,3-d]pyrimidin-4-yl}pyrimidin-2-amine], with under 0.018 nM; and `CC(=O)NCC(=O)N1CC(N2CCc3c(-c4cnc(N)nc4)nc(N4CCOCC4)nc32)C1` [Example 210], with 0.898 nM; and `CNC(=O)CN1CC[C@@](C)(N2CCc3c(-c4cnc(N)nc4)nc(N4CCOCC4)nc32)C1` [Example 400, 2-{(3R)-3-[4-(2-aminopyrimidin-5-yl)-2-(morpholin-4-yl)-5,6-dihydro-7H-pyrrolo[2,3-d]pyrimidin-7-yl]-3-methylpyrrolidin-1-yl}-N-methylacetamide], with 0.781 nM.

Regarding `CC(C)(O)CN1CC[C@@](C)(N2CCc3c(-c4cnc(N)nc4)nc(N4CCOCC4)nc32)C1` [Example 276, 1-{(3R)-3-[4-(2-aminopyrimidin-5-yl)-2-(morpholin-4-yl)-5,6-dihydro-7H-pyrrolo[2,3-d]pyrimidin-7-yl]-3-methylpyrrolidin-1-yl}-2-methylpropan-2-ol], the “PI3KA_Act Ki” value came to 0.182 nM. On to `CC(C)NC(=O)N1CC[C@](C)(N2CCc3c(-c4cnc(N)nc4)nc(N4CCOCC4)nc32)C1` [Example 395, (3S)-3-[4-(2-aminopyrimidin-5-yl)-2-(morpholin-4-yl)-5,6-dihydro-7H-pyrrolo[2,3-d]pyrimidin-7-yl]-3-methyl-N-(propan-2-yl)pyrrolidine-1-carboxamide], for which the “PI3KA_Act Ki” value is recorded as 0.352 nM. On to `CCC(C)(C)N1CCc2c(-c3cnc(N)nc3)nc(N3CCOCC3)nc21` [Example 184], for which the “PI3KA_Act Ki” value is 0.647 nM. For the molecule `C[C@H]1COCCN1c1nc(-c2cnc(N)nc2)c2c(n1)N([C@@]1(C)CCN(C(=O)[C@@](C)(N)CO)C1)CC2.Cl` [Example 486, (2S)-2-amino-1-[(3S)-3-{4-(2-aminopyrimidin-5-yl)-2-[(3S)-3-methylmorpholin-4-yl]-5,6-dihydro-7H-pyrrolo[2,3-d]pyrimidin-7-yl}-3-methylpyrrolidin-1-yl]-3-hydroxy-2-methylpropan-1-one hydrochloride], the “PI3KA_Act Ki” value is recorded as under 0.018 nM. Same read-out and setting: then `CN1CC(C(=O)N2CC[C@](C)(N3CCc4c(-c5cnc(N)nc5)nc(N5CCOCC5)nc43)C2)C1` [Example 356, {(3S)-3-[4-(2-aminopyrimidin-5-yl)-2-(morpholin-4-yl)-5,6-dihydro-7H-pyrrolo[2,3-d]pyrimidin-7-yl]-3-methylpyrrolidin-1-yl}(1-methylazetidin-3-yl)methanone], with 0.037 nM. As for `CC(C)(C)OC(=O)N1CC[C@H]1C(=O)N1CC[C@@](C)(N2CCc3c(-c4cnc(N)nc4)nc(N4CCOCC4)nc32)C1` [Example 357, tert-butyl (2S)-2-({(3R)-3-[4-(2-aminopyrimidin-5-yl)-2-(morpholin-4-yl)-5,6-dihydro-7H-pyrrolo[2,3-d]pyrimidin-7-yl]-3-methylpyrrolidin-1-yl}carbonyl)azetidine-1-carboxylate], the “PI3KA_Act Ki” value is reported as 0.144 nM.

`CCOC(=O)C(C)(C)C(=O)N1CC[C@](C)(N2CCc3c(-c4cnc(N)nc4)nc(N4CCOCC4)nc32)C1` [Example 322, ethyl 3-{(3S)-3-[4-(2-aminopyrimidin-5-yl)-2-(morpholin-4-yl)-5,6-dihydro-7H-pyrrolo[2,3-d]pyrimidin-7-yl]-3-methylpyrrolidin-1-yl}-2,2-dimethyl-3-oxopropanoate]: the “PI3KA_Act Ki” value is under 0.018 nM. With `C[C@H]1COCCN1c1nc(-c2cnc(N)nc2)c2c(n1)N([C@@]1(C)CCN(C(=O)[C@@]3(C)CCN3)C1)CC2.Cl` [Example 494, [(3S)-3-{4-(2-aminopyrimidin-5-yl)-2-[(3S)-3-methylmorpholin-4-yl]-5,6-dihydro-7H-pyrrolo[2,3-d]pyrimidin-7-yl}-3-methylpyrrolidin-1-yl][(2R)-2-methylazetidin-2-yl]methanone hydrochloride], the “PI3KA_Act Ki” value turned out to be 0.046 nM. In the case of `Nc1ncc(-c2nc(N3CCOCC3)nc3c2CCN3C2CN(S(=O)(=O)C3CCC3)C2)cn1` [Example 251, 5-{7-[1-(cyclobutylsulfonyl)azetidin-3-yl]-2-(morpholin-4-yl)-6,7-dihydro-5H-pyrrolo[2,3-d]pyrimidin-4-yl}pyrimidin-2-amine], the “PI3KA_Act Ki” value was determined as 1.652 nM. `C[C@]1(N2CCc3c(-c4cnc(N)nc4)nc(N4CCOCC4)nc32)CCN(C(=O)C(F)(F)CN)C1.Cl` [Example 307, 3-amino-1-{(3S)-3-[4-(2-aminopyrimidin-5-yl)-2-(morpholin-4-yl)-5,6-dihydro-7H-pyrrolo[2,3-d]pyrimidin-7-yl]-3-methylpyrrolidin-1-yl}-2,2-difluoropropan-1-one hydrochloride]: the “PI3KA_Act Ki” value was under 0.018 nM. For `C[C@H]1COCCN1c1nc(-c2cnc(N)nc2)c2c(n1)N(C1CN(S(=O)(=O)C3CNC3)C1)CC2` [Example 222], the “PI3KA_Act Ki” value is reported as 0.101 nM. Turning to `COC(=O)N1CC[C@](C)(N2CCc3c(-c4cnc(N)nc4)nc(N4CCOC[C@@H]4C)nc32)C1` [Example 508, methyl (3S)-3-{4-(2-aminopyrimidin-5-yl)-2-[(3S)-3-methylmorpholin-4-yl]-5,6-dihydro-7H-pyrrolo[2,3-d]pyrimidin-7-yl}-3-methylpyrrolidine-1-carboxylate], the “PI3KA_Act Ki” value was under 0.018 nM. With `[2H]C1([2H])OC([2H])([2H])C([2H])([2H])N(c2nc(-c3cnc(N)nc3)c3c(n2)N([C@@]2(C)CCN(C(=O)C4(C)CC4)C2)CC3)C1([2H])[2H]` [Example 236], the inhibition constant Ki is under 0.018 nM.

Still in this assay, the particulars now being: 1 mM ATP, hydrochloride.
For the molecule `CC1(N2CCc3c(-c4cnc(N)nc4)nc(N4CCOCC4)nc32)CCCNC1` (single isomer, unassigned) [Example 432, 5-[7-(3-methylpiperidin-3-yl)-2-(morpholin-4-yl)-6,7-dihydro-5H-pyrrolo[2,3-d]pyrimidin-4-yl]pyrimidin-2-amine hydrochloride], the “PI3KA_Act Ki” value worked out at 11.739 nM.

The Ki is a measure of affinity in units of concentration, obtained from inhibition or displacement.
